Results on 3 compounds are retold here after patent US20220000969A1, “COMBINATIONS OF LYSOBACTIN AND AMINOGLYCOSIDES AGAINST DISEASES CAUSED BY GRAM-POSITIVE AND GRAM-NEGATIVE BACTERIA IN NON-HUMAN ANIMALS” (Bayer Animal Health GmbH, priority 2017, published 2022).

Starred links: 1 amine or outer side, 2 acyl side, 3 side chain; linkers in the order of their positions; H or OH if unused. Positions of bridges follow the written chain, without caps; N, C: chain ends. Non-standard residues stand in square brackets, D forms with d. Residues, ends and D or L forms follow the SMILES beside them. Phe(3R-OH) = O=C([C@@H](N[*:1])[C@H](O[*:3])c1ccccc1)[*:2]; Asn(3S-OH) = NC(=O)[C@@H](O)[C@H](N)C(=O)O; Leu(3R-OH) = CC(C)[C@@H](O)[C@H](N)C(=O)O; aThr = C[C@H](O)[C@H](N)C(=O)O

Assay [1] deals with Streptococcus uberis (ATCC 27958). The assay is described as follows: acute mouse mastitis model with S. uberis (example 14). In kind it is in vivo, lactating CD-1 mice. The conditions noted are these: paraffin formulation, 18 h after infection. The protocol: Twenty-three lactating CD-1 mice were experimentally infected 10-15 days after birth of the offspring with the mastitis pathogen Streptococcus uberis (ATCC 27958) on the left and right fourth mammary gland. Four hours after infection the animals were treated intrammarily with the test items. The study comprised four treatment groups with four mice each and a control group with seven mice. The mice of the treatment groups received paraffin formulations of lysobactin at 15 μg/gland or neomycin trisulfate at 1600 μg/gland, or two combinations of both with lysobactin at 15 μg plus neomycin trisulfate at 800 μg or 1600 μg per gland. Eighteen hours after infection the mice were killed and the mammary glands were removed and bacterial CFU were evaluated microbiologically.

Assay [2] has as its system Staphylococcus aureus. The assay is described as follows: dairy cow udder infection model with S. aureus (example 15). In kind it is in vivo, lactating dairy cows. The note with it: for microbiological cure rate: miglyol based suspension, two times; for SCC recovery rate: counts below 200.000 cells per mL. The text has this:
Fifteen healthy lactating dairy cows were experimentally infected with the mastitis pathogen Staphylococcus aureus on all four udder quarters.
Additionally a fourth group of udder quarters received miglyol as negative control. Treatments were randomly assigned to 60 udder quarters in total. Only udder quarters that were bacteriologically positive for the challenge organism immediately prior to treatment (n=49) were eligible for assessment of microbiological and clinical cure. The diseased quarters were treated with these intramammary formulations two times with an interval of 24 hours in between. Udders were clinically examined and milk samples were taken before treatment and several times after that until three weeks after the second administration by study personnel blinded to treatment.
Milk was inspected visually for deviation in its consistency and samples were evaluated for presence of the challenge organism and for somatic cell count to confirm the diagnosis mastitis. Diseased udder quarters were considered microbiologically cured when Staphylococcus aureus found in milk samples shortly before treatment could not be isolated from any milk sample taken within the time period between the third and the twenty-first day after the second treatment. Clinical cure was achieved when the local symptoms of mastitis had completely disappeared, and recovery of somatic cell counts (SCC) as parameter of udder inflammation was attained when all counts remained below 200.000 cells per mL of milk in the period mentioned above.

Assay [3] deals with Staphylococcus aureus. The experiment in a line: Staphylococcus aureus acute mouse mastitis model. Format: in vivo, lactating CD-1 mice. The protocol: The efficacy of lysobactin (formulated in a hydrogel at pH 4.7) was tested in a Staphylococcus aureus acute mouse mastitis model established at the University of Sherbrooke, Canada (Brouillette et al, Vet. Microbiol. (2004) 4:253-262), that is hereby incorporated by reference. Both the abdominal mammary glands (L4 and R4) of lactating CD-1 mice were intramammarily infected with 100 CFU (colony forming units) of S. aureus. The mice were treated intramammarily with lysobactin four hours after infection. Each treatment group contained at least 3 mice (6 quarters), 14 hours later (18 hours after inoculation) mice were sacrificed, mammary glands were harvested and the CFU content evaluated by plating 10-fold serial dilutions of mammary gland homogenates. The CFU content was expressed as log10 count. The detection limit was 200 CFU/g of gland. Glands with less than 200 CFU/g were regarded as cleared. The efficacy of lysobactin and neomycin trisulfate, either alone or in combination, was tested in a Staphylococcus aureus acute mouse mastitis model established at the University of Sherbrooke, Canada (Brouillette et al, Vet. Microbiol. (2004) 4:253-262), as described in example 5. Samples were formulated in paraffin.

Assay [4] concerns E. coli P4:032. The assay is described as follows: in vitro kill kinetics of combinations in milk (synergy). The conditions noted are these: after 8 h, 32 μg/ml neomycin alone. Format: cell-based. The protocol: The flasks were incubated for 24-48 hours in a shaking water bath at 35+/−2° C., and viable bacterial counts in each flask were determined at several time-points by diluting and plating samples on agar plates.
The kill kinetics of lysobactin and neomycin, either alone or in combination, against E. coli P4:032 in milk were determined for concentration ratio of lysobactin:neomycin of […] (256 μg/ml lysobactin and 32 μg/ml neomycin).

The test system of assay [5] is S. uberis. The experiment in a line: resistance development during serial passaging. In kind it is cell-based, Streptococcus uberis. The note with it: serial passaging at sub-MIC concentrations over 33 days. Here is the method:
(§1) The appearance of MIC changes during constant exposure of bacteria to sub-MIC concentrations of lysobactin was assessed by serial passaging experiments. On the first day the MICs of S. aureus and S. uberis were assessed by microbroth dilution MIC methodology as described by the Clinical and Laboratory Standards Institute (CLSI). Each day for the following 33 consecutive days, bacteria from the well containing the highest concentrations allowing full growth were collected and used to inoculate new 96-well plates and to assess the MIC during constant exposure to lysobactin. The MIC obtained on each day was plotted over time. Rifampicin, which is known to result in quick changes of the MIC, was used as positive control.

In assay [6] the test system is Streptococcus uberis ATCC 27958. The assay is described as follows: in vitro kill kinetics of lysobactin alone in milk. Format: cell-based. The conditions noted are these: lysobactin 4-64 μg/mL, at 48 h. The protocol:
(§2) In order to assess the ability of lysobactin to kill bacteria in milk, flasks containing different concentrations of lysobactin in store-bought full-fat milk were inoculated with 1-2×10^6 colony forming units/ml of a representative strain of either Staphyloccus aureus or Streptococcus uberis. The flasks were incubated for 24-48 hours in a shaking water bath at 35+/−2° C., and viable bacterial counts in each flask were determined at several time-points by diluting and plating samples on agar plates. A reduction of the number of viable bacteria in the initial inoculum by at least 99.9% is defined as bactericidal activity.
(§3) The kill kinetics of lysobactin against Staphylococcus aureus ATCC 29740 and Streptococcus uberis ATCC 27958 in milk were determined for concentrations of lysobactin of 4, 8, 16, 32 and 64 μg/mL. Results are depicted in FIG. 1 (CFU: colony forming units). A cidality at 24 h and 48 h, respectively, can be postulated for S. aureus and S. uberis.

Assay [7] deals with Staphylococcus aureus ATCC 29740. The experiment in a line: in vitro kill kinetics of lysobactin alone in milk. The conditions noted are these: lysobactin 4-64 μg/mL, at 24 h. Format: cell-based. The protocol:
as §2, §3

In assay [8] the test system is S. aureus. The experiment in a line: resistance development during serial passaging. Format: cell-based, Staphylococcus aureus. The note with it: serial passaging at sub-MIC concentrations over 33 days. The protocol:
as §1

Where [9] appears, read: Day 3 after second treatment, neomycin trisulfate 400 mg.
[10] abbreviates: Day 21 after second treatment, neomycin trisulfate 400 mg.
Setting [11] is: Day 3 after second treatment, lysobactin 50 mg.
The mark [12] stands for this setting: Day 21 after second treatment, lysobactin 50 mg.

For `NC[C@@H]1O[C@H](O[C@@H]2[C@@H](CO)OC(O[C@@H]3[C@@H](O)[C@H](N)C[C@H](N)[C@H]3OC3O[C@H](CN)[C@@H](O)[C@H](O)[C@H]3N)[C@@H]2O)[C@H](N)[C@@H](O)[C@@H]1O` (some centres unmarked) [neomycin trisulfate, reference compound], the “reduction of mean CFU content” value in assay [1] (1600 μg neomycin trisulfate per gland) is recorded as roughly 1.5 log10. In assay [2] (setting [9]), the “local clinical cure rate” value stood at 67%, the microbiological cure rate came out at 100% and the SCC recovery rate is reported as 17%. Besides, in assay [2] (setting [10]), the “local clinical cure rate” value is recorded as 100%, the microbiological cure rate is on record as 42% and the SCC recovery rate is listed as 50%. For the same compound, in assay [3] (1600 μg neomycin trisulfate intramammary, formulated in paraffin), the “reduction of median CFU content” value is listed as roughly 2.5 log10.
Consider neomycin, for which the bacterial cell count result in assay [4] was “below the detection limit”.
For the compound `CC[C@H](C)[C@@H]1NC(=O)[C@@H](CCCNC(=N)N)NC(=O)[C@H](CC(C)C)NC(=O)[C@H]([C@H](O)C(C)C)NC(=O)[C@@H](NC(=O)[C@H](CC(C)C)NC(=O)[C@H](N)CC(C)C)[C@@H](c2ccccc2)OC(=O)[C@H](CO)NC(=O)[C@H]([C@H](O)C(N)=O)NC(=O)CNC(=O)[C@H]([C@H](C)O)NC1=O` [lysobactin] (H-[dL]L[Phe(3R-OH)][Leu(3R-OH)]L[dR]I[aThr]G[Asn(3S-OH)]S; ester 3-C), in assay [1] (15 μg lysobactin per gland), the “reduction of mean CFU content” value was “ca. 2.6 log10”. The “MIC change during constant exposure” value in assay [5] and in assay [8] was “remain constant” in each case. Further, the “cidality (reduction of viable bacteria by at least 99.9%)” value in assay [6] and in assay [7] was “cidality” throughout. Also, the “local clinical cure rate” value in assay [2] (setting [11]) and in assay [2] (setting [12]) was 71% each time. In addition, the microbiological cure rate worked out at 71% in assay [2] (setting [11]) and 14% in assay [2] (setting [12]). Also, the values for the SCC recovery rate in assay [2] (setting [11]) and in assay [2] (setting [12]) were 35% and 36%, respectively. For the same compound, the “reduction of median CFU content” value in assay [3] (50 μg lysobactin intramammary, formulated in paraffin) is listed as “ca. 2.7 log10”; in assay [3] (50 μg lysobactin intramammary, hydrogel pH 4.7, 4 h after infection, glands 18 h after inoculation), “ca. 4 log10”. Also, the “elimination of infection from glands” value in assay [3] (400 μg lysobactin intramammary, hydrogel pH 4.7, cleared = less than 200 CFU/g) is given as “eliminates the infection from all infected glands”.
